Where two headings read alike, the source gives them in different places.
Tested on: HCC461
Assay: cell viability assay in HCC461, compound alone
Type: cell-based
[1] = HCC461, HCC461 cells, compound alone, read-out: IC50 (uM) in cell viability assay in HCC461
[2] = HCC461, HCC461, Tables 15-18, read-out: IC50 (uM) in cell viability assay in HCC461
[3] = HCC461, HCC461, Tables 6-9, read-out: IC50 (μM) in cell viability assay in HCC461
[4] = HCC461, Tables 15-18, read-out: IC50 (uM) in cell viability assay in HCC461

SMILES | IC50 [1] [µM] | IC50 [2] [µM] | also measured
CC[C@H](C)C(NC(=O)[C@H](C)NC)C(=O)N1C[C@@H](NC(=O)c2cc(OC)cc(C(=O)N[C@H]3C[C@@H](C(=O)N[C@H](C)c4ccccc4)N(C(=O)C(NC(=O)[C@H](C)NC)[C@@H](C)CC)C3)c2)C[C@H]1C(=O)NC(C)c1ccccc1 (some centres unmarked) [Compound P3-74] | 0.072 |  | 
CN[C@@H](C)C(=O)N[C@@H](CCCCCC[C@H](NC(=O)[C@H](C)NC)C(=O)N1C[C@@H](NS(=O)(=O)c2ccccc2)C[C@H]1C(=O)N[C@@H]1CCCc2ccccc21)C(=O)N1C[C@@H](NS(=O)(=O)c2ccccc2)C[C@H]1C(=O)N[C@@H]1CCCc2ccccc21 [Compound P2-14] |  | 0.092 | 
CN[C@@H](C)C(=O)N[C@@H](CCNC(=O)c1cccc(C(=O)NCC[C@H](NC(=O)[C@H](C)NC)C(=O)N2CCC[C@H]2C(=O)N[C@@H]2CCCc3ccccc32)c1)C(=O)N1CCC[C@H]1C(=O)N[C@@H]1CCCc2ccccc21 [Compound P2-26] |  | 0.08 | 
CN[C@@H](C)C(=O)N[C@H](C(=O)N1CCC[C@H]1C(=O)N[C@H](CNC(=O)c1cccc(C(=O)NC[C@@H](NC(=O)[C@@H]2CCCN2C(=O)[C@@H](NC(=O)[C@H](C)NC)C(C)(C)C)c2ccccc2)c1)c1ccccc1)C(C)(C)C [Compound P4-11] |  | 0.068 | 
CN[C@@H](C)C(=O)N[C@@H](CC#CC#CC[C@H](NC(=O)[C@H](C)NC)C(=O)N1CCCC[C@H]1C(=O)N[C@@H]1CCCc2ccccc21)C(=O)N1CCCC[C@H]1C(=O)N[C@@H]1CCCc2ccccc21 [Compound 87] |  |  | IC50 [3]: 0.404 µM
CN[C@@H](C)C(=O)N[C@H](C(=O)N1CCC[C@H]1C(=O)N[C@H](CNC(=O)c1cc(N)cc(C(=O)NC[C@@H](NC(=O)[C@@H]2CCCN2C(=O)[C@@H](NC(=O)[C@H](C)NC)C(C)(C)C)C2CCCCC2)c1)C1CCCCC1)C(C)(C)C [Compound P4-9] |  | 0.53 | 
CC[C@H](C)[C@H](NC(=O)[C@H](C)NC)C(=O)N1C[C@@H](NC(=O)c2cc(C(=O)N[C@H]3C[C@@H](C(=O)N[C@H](C)c4ccccc4)N(C(=O)[C@@H](NC(=O)[C@H](C)NC)[C@@H](C)CC)C3)[nH]n2)C[C@H]1C(=O)N[C@H](C)c1ccccc1 [Compound P3-69] | 0.017 |  | 
CN[C@@H](C)C(=O)N[C@@H](CCCCCC[C@H](NC(=O)[C@H](C)NC)C(=O)N1C[C@@H](NC(=O)c2ccccc2)C[C@H]1C(=O)N[C@@H]1CCCc2ccccc21)C(=O)N1C[C@@H](NC(=O)c2ccccc2)C[C@H]1C(=O)N[C@@H]1CCCc2ccccc21 [Compound P2-13] |  |  | IC50 [4]: 0.168 µM
CN[C@@H](C)C(=O)N[C@H](C(=O)N1C[C@@H](NC(=O)c2ccc3cc(C(=O)N[C@H]4C[C@@H](C(=O)N[C@@H]5CCCc6ccccc65)N(C(=O)[C@@H](NC(=O)[C@H](C)NC)C(C)(C)C)C4)ccc3c2)C[C@H]1C(=O)N[C@@H]1CCCc2ccccc21)C(C)(C)C [Compound P3-38] | 0.007 |  | 
CN[C@@H](C)C(=O)N[C@H](C(=O)N1C[C@@H](NC(=O)CCCCC(=O)N[C@H]2C[C@@H](C(=O)N[C@@H]3CCCc4ccccc43)N(C(=O)[C@@H](NC(=O)[C@H](C)NC)C(C)(C)C)C2)C[C@H]1C(=O)N[C@@H]1CCCc2ccccc21)C(C)(C)C [Compound P3-22] | 0.003 |  | 
CCC[C@H](NC)C(=O)N[C@H](C(=O)N1CC[C@H](NC(=O)c2cccc(C(=O)N[C@H]3C[C@@H](C(=O)N[C@@H]4CCCc5ccccc54)N(C(=O)[C@@H](NC(C)[C@H](C)NC)C(C)C)C3)c2)C1)C(C)(C)C (some centres unmarked) [Compound H-4] |  | 1.69 | 
C#CC[C@H](NC(=O)[C@H](C)NC)C(=O)N1C[C@@H](NC(=O)c2cc(N)cc(C(=O)N[C@H]3C[C@@H](C(=O)N[C@@H]4CCCc5ccccc54)N(C(=O)[C@H](CC#C)NC(=O)[C@H](C)NC)C3)c2)C[C@H]1C(=O)N[C@@H]1CCCc2ccccc21 [Compound P3-62] | 0.198 |  | 
CN[C@@H](C)C(=O)N[C@H](C(=O)N1C[C@@H](NC(=O)c2cccc(C(=O)N[C@H]3C[C@@H](C(=O)N[C@@H]4CCCc5ccccc54)N(C(=O)[C@@H](NC(=O)[C@H](C)NC)C4CCCCC4)C3)c2)C[C@H]1C(=O)N[C@@H]1CCCc2ccccc21)C1CCCCC1 [Compound P3-53] | 0.01 |  | 
CN[C@@H](C)C(=O)N[C@H](C(=O)N1C[C@@H](NC(=O)c2cccc(C(=O)N[C@H]3C[C@@H](C(=O)N[C@@H]4CCCc5ccccc54)N(C(=O)[C@@H](NC(=O)[C@H](C)NC)C(C)C)C3)c2)C[C@H]1C(=O)N[C@@H]1CCCc2ccccc21)C(C)C [Compound P3-55] | 0.017 |  | 
CN[C@@H](C)C(=O)N[C@H](C(=O)N1C[C@@H](NC(=O)c2cccc(C(=O)N[C@H]3C[C@@H](C(=O)N[C@H](C)C(C)C)N(C(=O)[C@@H](NC(=O)[C@H](C)NC)C(C)(C)C)C3)c2)C[C@H]1C(=O)N[C@@H]1CCCc2ccccc21)C(C)(C)C [Compound 132] |  |  | IC50 [3]: 0.017 µM
CN[C@@H](C)C(=O)N[C@H](C(=O)N1CCC[C@H]1C(=O)N[C@H](C(=O)NCCC#CC#CCCNC(=O)[C@@H](NC(=O)[C@@H]1CCCN1C(=O)[C@@H](NC(=O)[C@H](C)NC)C(C)(C)C)C1CCCCC1)C1CCCCC1)C(C)(C)C [Compound P4-1] |  | 0.08 | 

SMILES | IC50 [1] [µM] | IC50 [2] [µM] | also measured
CN[C@@H](C)C(=O)N[C@@H](CCCCCC[C@H](NC(=O)[C@H](C)NC)C(=O)N1CCC[C@H]1C(=O)NC1c2ccccc2-c2ccccc21)C(=O)N1CCC[C@H]1C(=O)NC1c2ccccc2-c2ccccc21 [Compound P2-6] |  | 0.024 | 
CN[C@@H](C)C(=O)N[C@@H](CC#CC#CC[C@H](NC(=O)[C@H](C)NC)C(=O)N1CSC[C@H]1C(=O)N[C@@H]1CCCc2ccccc21)C(=O)N1CSC[C@H]1C(=O)N[C@@H]1CCCc2ccccc21 [Compound P2-33] |  | 0.188 | 
CN[C@@H](C)C(=O)NC(C(=O)N1C[C@@H](NC(=O)c2cccc(C(=O)N[C@H]3C[C@@H](C(=O)N[C@H](C)c4ccccc4)N(C(=O)[C@H](CCC(=O)OC)NC(=O)[C@H](CO)NC)C3)c2)CC1C(=O)N[C@@H]1CCCc2ccccc21)C(C)(C)C (some centres unmarked) [Compound 154] |  |  | IC50 [3]: 3.6 µM
CN[C@@H](C)C(=O)N[C@H](C(=O)N1C[C@@H](NC(=O)c2cc(N)cc(C(=O)N[C@H]3C[C@@H](C(=O)N[C@@H]4CCCc5ccccc54)N(C(=O)[C@@H](NC(=O)[C@H](C)NC)C4CCCCC4)C3)c2)C[C@H]1C(=O)N[C@@H]1CCCc2ccccc21)C1CCCCC1 [Compound P3-54] | 0.051 |  | 
CN[C@@H](C)C(=O)N[C@H](C(=O)N1C[C@@H](NC(=O)c2cccc(C(=O)N[C@H]3C[C@@H](C(=O)N(C)Cc4ccccc4)N(C(=O)[C@@H](NC(=O)[C@H](C)NC)C(C)(C)C)C3)c2)C[C@H]1C(=O)N(C)Cc1ccccc1)C(C)(C)C [Compound P3-49] | 0.141 |  | 
CC[C@H](NC)C(=O)N[C@@H](CC#CC#CC[C@H](NC(=O)[C@H](CC)NC)C(=O)N1CCC[C@H]1C(=O)N[C@@H]1CCCc2ccccc21)C(=O)N1CCC[C@H]1C(=O)N[C@@H]1CCCc2ccccc21 [Compound P2-8] |  |  | IC50 [4]: 0.009 µM
CN[C@@H](C)C(=O)N[C@@H](CCCCCC[C@H](NC(=O)[C@H](C)NC)C(=O)N1CCC[C@H]1C(=O)N(C)Cc1ccccc1)C(=O)N1CCC[C@H]1C(=O)N(C)Cc1ccccc1 [Compound P2-4] |  | 0.037 | 
CN[C@@H](C)C(=O)N[C@H](C(=O)N1C[C@@H](NC(=O)[C@H]2CC[C@H](C(=O)N[C@H]3C[C@@H](C(=O)N[C@@H]4CCCc5ccccc54)N(C(=O)[C@@H](NC(=O)[C@H](C)NC)C(C)(C)C)C3)CC2)C[C@H]1C(=O)N[C@@H]1CCCc2ccccc21)C(C)(C)C [Compound P3-31] | 0.002 |  | 
CN[C@@H](C)C(=O)N[C@H](C(=O)N1C[C@@H](NC(=O)c2cc(NC(C)=O)cc(C(=O)N[C@H]3C[C@@H](C(=O)N[C@@H]4CCCc5ccccc54)N(C(=O)[C@@H](NC(=O)[C@H](C)NC)C(C)(C)C)C3)c2)C[C@H]1C(=O)N[C@@H]1CCCc2ccccc21)C(C)(C)C [Compound P3-42] | 0.011 |  | 
CN[C@@H](C)C(=O)N[C@H](C(=O)N1C[C@@H](NC(=O)c2cc(C(=O)N[C@H]3C[C@@H](C(=O)N[C@H](C)c4ccccc4)N(C(=O)[C@@H](NC(=O)[C@H](C)NC)C4CCCCC4)C3)[nH]n2)C[C@H]1C(=O)N[C@H](C)c1ccccc1)C1CCCCC1 [Compound P3-79] | 0.057 |  | 
CN[C@@H](C)C(=O)N[C@H](C(=O)N1CCC[C@H]1C(=O)NC1c2ccccc2-c2ccccc21)[C@@H](C)OCCCCCCO[C@H](C)[C@H](NC(=O)[C@H](C)NC)C(=O)N1CCC[C@H]1C(=O)NC1c2ccccc2-c2ccccc21 [Compound P2-16] |  | 0.03 | 
CN[C@@H](C)C(=O)N[C@H](C(=O)N1C[C@@H](NC(=O)c2cc(C(=O)N[C@H]3C[C@@H](C(=O)N[C@@H]4CCCc5ccccc54)N(C(=O)[C@@H](NC(=O)[C@H](C)NC)C(C)(C)C)C3)cc(C(C)(C)C)c2)C[C@H]1C(=O)N[C@@H]1CCCc2ccccc21)C(C)(C)C [Compound P3-23] | 0.007 |  | 
CN[C@@H](C)C(=O)N[C@H](C(=O)N1C[C@@H](NC(=O)c2cc(C(=O)N[C@H]3C[C@@H](C(=O)NC4CCCc5ccccc54)N(C(=O)[C@@H](NC(=O)[C@H](C)NC)C(C)(C)C)C3)ccc2Br)CC1C(=O)N[C@@H]1CCCc2ccccc21)C(C)(C)C (some centres unmarked) [Compound P3-30] | 0.013 |  | 
CC[C@@H](C)C(=O)N[C@H](C(=O)N1C[C@@H](NC(=O)c2cccc(C(=O)N[C@H]3C[C@@H](C(=O)NC(c4ccccc4)c4ccccc4)N(C(=O)[C@@H](NC(=O)[C@H](C)NC)C(C)(C)C)C3)c2)C[C@H]1C(=O)NC(c1ccccc1)c1ccccc1)C(C)(C)C [Compound P3-51] | 0.026 |  | 
C[C@H](NC(=O)OCc1ccc([N+](=O)[O-])cc1)C(=O)NC(C(=O)N1C[C@@H](NC(=O)c2cccc(C(=O)N[C@H]3C[C@@H](C(=O)N[C@@H]4CCCc5ccccc54)N(C(=O)[C@@H](NC(=O)[C@H](C)NC(=O)OCc4ccc([N+](=O)[O-])cc4)C(C)(C)C)C3)c2)CC1C(=O)N[C@@H]1CCCc2ccccc21)C(C)(C)C (some centres unmarked) [Compound 111] |  |  | IC50 (HCC461, Tables 6-9, read-out: IC50 (μM) in cell viability assay in HCC461): > 30 µM
CN[C@@H](C)C(=O)N[C@H](C(=O)N1C[C@@H](NC(=O)c2ccccc2C(=O)N[C@H]2C[C@@H](C(=O)N[C@@H]3CCCc4ccccc43)N(C(=O)[C@@H](NC(=O)[C@H](C)NC)C(C)(C)C)C2)C[C@H]1C(=O)N[C@@H]1CCCc2ccccc21)C(C)(C)C [Compound P3-20] | 0.008 |  | 

Reference: patent publication US20130344026A1, “Dimeric Smac Mimetics” (priority 2009, published 2013)
